Data on three compounds can be found in patent US12458643B2, “Antidepressant/anxiolytic drug in which PAC1 receptor antagonist is used” (KAGOSHIMA UNIVERSITY, priority 2020, dated 2025).

The target of data set [1] is T1, PAC1 receptor (Homo sapiens, UniProt P41586).
T1 sequence (P41586 21-468): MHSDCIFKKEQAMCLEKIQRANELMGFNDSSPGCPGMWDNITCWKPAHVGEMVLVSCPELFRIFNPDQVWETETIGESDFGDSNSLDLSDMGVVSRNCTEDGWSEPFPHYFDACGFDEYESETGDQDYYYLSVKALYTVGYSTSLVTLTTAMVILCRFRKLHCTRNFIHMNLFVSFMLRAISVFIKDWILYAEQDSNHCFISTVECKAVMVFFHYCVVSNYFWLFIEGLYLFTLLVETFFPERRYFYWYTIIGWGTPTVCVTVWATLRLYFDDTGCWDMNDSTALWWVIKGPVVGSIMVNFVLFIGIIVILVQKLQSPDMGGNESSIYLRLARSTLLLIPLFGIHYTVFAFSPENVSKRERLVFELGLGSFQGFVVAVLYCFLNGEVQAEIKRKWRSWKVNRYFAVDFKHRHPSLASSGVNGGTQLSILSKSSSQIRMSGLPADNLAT
The note with it: disclosed in Patent Literature 2 (WO 2019/065794); cited from earlier work.

Data set [2] relates to normal mice. As to the kind of experiment: Prepulse inhibition (PPI) test in normal mice. It counts as in vivo, mouse. The note with it: i.p. PA-915 30 mg/kg, ketamine 20 mg/kg. Here is the method: A vehicle (V: 10% DMSO solution; dissolved in saline; n=13), PA-915 (PA: 30 mg/kg; n=10) or ketamine (K: 20 mg/kg; n=15) was intraperitoneally administered (0.1 mL/10 g) to male C57BL/6J mice (8 to 12 weeks old), which were then acclimatized to 65 dB background noise for 5 minutes in the apparatus. The mice were randomly stimulated 20 times with 50-msec 120 dB startle sound or with 20-msec 73 dB, 77 dB, and 81 dB prepulse sounds and 50-msec 120 dB startle sound 50 msec after each prepulse sound for 30 minutes from the completion of acclimatization. In this respect, the ratio of PPI was calculated according to [(Average startle amplitude without prepulse)−(Average startle amplitude of trial with prepulse)]/(Average startle amplitude without prepulse)×100. The data was indicated by mean±standard error. **P<0.01; *P<0.05 (One-way ANOVA followed by Tukey-Kramer test).

For data set [3], the system named is plasma corticosterone level. As to the kind of experiment: Repeated corticosterone administration, plasma corticosterone level (ELISA). It counts as in vivo, mouse. The note with it: male mice, corticosterone 20 mg/kg s.c. 21 days; single i.p. PA-915 30 mg/kg, ketamine 20 mg/kg; next day. The method, then: A vehicle (0.5% carboxymethylcellulose solution) or corticosterone (20 mg/kg) was subcutaneously administered (0.1 mL/10 g) to male C57BL/6J mice (7 weeks old) for 21 days. A vehicle (10% DMSO solution; dissolved in saline; n=4), PA-915 (30 mg/kg; n=4) or ketamine (20 mg/kg; n=4) was intraperitoneally administered thereto (0.1 mL/10 g) 3 hours after administration on the 21st day. On the next day, the mice were subjected to the forced swim test and then decapitated, and systemic circulating blood was collected. The plasma corticosterone level was measured using Corticosterone ELISA kit from Cayman Chemical Company. Mice given the vehicle by repeated administration without repeated corticosterone administration were used as a control (n=4). The data was indicated by mean±standard error. **P<0.01 (One-way ANOVA followed by Tukey-Kramer test).
In general terms: In an ELISA, binding on a coated surface is turned into a signal by an enzyme label.

Data set [4] has as its system normal mice. Description: Spontaneous motor activity in normal mice (open field test). It counts as in vivo, mouse. The note with it: i.p. PA-915 30 mg/kg, ketamine 20 mg/kg, fluoxetine 20 mg/kg, 30 min before vs 30 min after administration. The method, then: (1) The effects of PA-915, ketamine and the existing drug fluoxetine on normal mice were evaluated by an open field test (test to measure spontaneous locomotion in a novel environment by exploiting the properties of mice to do exploratory behavior in such a novel environment, and using a 45 cm×45 cm box of 30 cm in height).
Male C57BL/6J mice (8 to 12 weeks old) were placed in the box (illuminance: 100 lx) and allowed to freely explore the box for 60 minutes. Then, a vehicle (V: 10% DMSO solution; dissolved in saline; n=8), PA-915 (PA: 30 mg/kg; n=9), ketamine (K: 20 mg/kg; n=8) or fluoxetine (F: 20 mg/kg; n=11) was intraperitoneally administered thereto (0.1 mL/10 g). Spontaneous motor activity was measured by using the total distances traveled for 30 minutes before administration and for 30 minutes after administration as indexes. The data was indicated by mean±standard error. **P<0.01; *P<0.05 (Two-way ANOVA followed by Tukey-Kramer test).

Data set [5] deals with normal mice. Description: Radial maze test in normal mice. It counts as in vivo, mouse. The note with it: i.p. PA-915 30 mg/kg, ketamine 20 mg/kg, 30 minutes later, Day 10. The method, then:
(3) The effects of PA-915 and ketamine on normal mice were evaluated by a radial maze test (test to evaluate spatial working memory by exploiting the foraging behavior of mice, and using an apparatus having 40 cm long, 10 cm wide and 12 cm high arms radially arranged in 8 directions).
On Day 0, male C57BL/6J mice (8 weeks old) were acclimatized to the apparatus by free exploration for 10 minutes in the apparatus in a laboratory (illuminance: 200 lx). On Days 1 and 2, the mice were allowed to explore only correct arms baited with a reward (food pellets, 5 mg) for 10 minutes. On Days 3 to 9, the mice were allowed to explore all the arms for 5 minutes at maximum until the mice finished the reward while the ends of the correct arms were baited with the reward. On Day 10, a vehicle (V: 10% DMSO solution; dissolved in saline; n=10), PA-915 (PA: 30 mg/kg; n=10) or ketamine (K: 20 mg/kg; n=10) was intraperitoneally administered thereto (0.1 mL/10 g). The mice were allowed to freely explore the maze from 30 minutes later, and the number of entries to the arms without the reward (the number of errors) was measured. During the test period, the absence of marked change in the body weights of the mice by dietary restriction was confirmed. The data was indicated by mean±standard error. **P<0.01 (One-way ANOVA followed by Tukey-Kramer test).

For the compound `C=CCOc1ccc(C2CC(=O)Nc3nc(N)[nH]c(=O)c32)cc1OC` (stereo not drawn) [PA-8], the “PAC1 receptor antagonistic action” value in data set [1] is “PAC1 receptor antagonistic action”.

Take `CNC1(c2ccccc2Cl)CCCCC1=O` (stereo not drawn) [ketamine]: in data set [2], the “influence on prepulse inhibition (PPI ratio)” value is “caused prepulse inhibition deficits”. For the same compound, the “effect on plasma corticosterone level” value in data set [3] was “decreased the plasma corticosterone level”. In data set [4], the “change in spontaneous motor activity (total distance traveled)” value is reported as “increase in spontaneous motor activity”. In addition, the “influence on spatial working memory (number of errors, radial maze)” value in data set [5] was “decreased spatial cognitive function”.

Consider `O=C(NCCc1c[nH]cn1)C1CC(=O)N(c2n[nH]c3ccccc23)C1` (stereo not drawn) [PA-9], for which, in data set [1], the “PAC1 receptor antagonistic action” value is on record as “PAC1 receptor antagonistic action”.
